Paper PMC9938899, “Rice-memolin, a novel peptide derived from rice bran, improves cognitive function after oral administration in mice” (Scientific Reports, 2023)
Where no end group is shown, it is not given here.

Assays:
mice fed HFD = assay: novel object recognition test (ORT) in mice fed a high-fat diet; type: in vivo; details: MLA 0.3 mg/kg i.p. with rice-memolin 1 mg/kg p.o. once a day for 3 days, n = 3–5 (Fig. 4)
Description: Male ddY mice (11 weeks old) were obtained from SLC (Shizuoka, Japan). They were kept in a temperature-controlled room (23 °C) on a daily 12-h light: 12-h dark cycle. After one week-acclimatization, these mice were fed MF pellets (Oriental Yeast, Tokyo, Japan) as control diet, HFD60 pellets (Oriental Yeast Co., Ltd, Japan) as high-fat diet, or HFD 60 pellets containing 0.04% rice bran protein digest (specially ordered from Oriental Yeast Co., Ltd, Japan) with free access to water for 7 days. The component of HFD60 was previously reported. Animal experiments were conducted in accordance with the Fundamental Guidelines for Proper Conduct of Animal Experiment and Related Activities in Academic Research Institutions under the jurisdiction of the Ministry of Education, Culture, Sports, Science and Technology of Japan, and were approved by the Committee on Animal Experimentation at Kyoto University, Japan. All experiments were approved by the Kyoto University Ethics Committee for Animal Research Use, permission code was R3-13. […]
Cognitive function was evaluated on Day 6 and 7 using two behavioral pharmacological tests: novel object recognition test (ORT) and object location test (OLT). […] Using the ORT, effect of donepezil, a drug currently used for the relief of cognitive deficits associated with mild to moderate Alzheimer’s diseases, was evaluated. […]

pepsin and pancreatin = pepsin and pancreatin digestion of VYTPG with LCMS analysis; type: in vitro ADME; details: simulated gastrointestinal digestion; each enzyme treatment time 1 h; LCMS analysis (Supplemental Fig. S1)
Description: Pepsin and pancreatin digests of VYTPG and LCMS analysis were performed in a similar manner to previous studies (Shobako et al.) with slight modifications to simulate peptide bioavailability. Each enzyme treatment time was 1 h.

Molecule | effect on the rice-memolin-induced improvement in the novel ORT (mice fed HFD) | stability to digestion by pepsin and pancreatin (pepsin and pancreatin)
CCN1C[C@]2(COC(=O)c3ccccc3N3C(=O)C[C@H](C)C3=O)CC[C@H](OC)[C@@]34[C@@H]5C[C@H]6[C@H](OC)[C@@H]5[C@](O)(C[C@@H]6OC)[C@@](O)([C@@H](OC)[C@H]23)[C@@H]14 [MLA, methyllycaconitine] | inhibited the effects of rice-memolin | 
VYTPG [VYTPG, Val-Tyr-Thr-Pro-Gly] |  | existed even after digestion by pepsin and pancreatin
